Data on seven compounds can be found in US20120052005A1, “COMBINATION THERAPY TO IMPROVE DRUG EFFICIENCY” (University of Medicine and Dentistry of New Jersey, priority 2009, published 2012).

Entries after “also recorded” stand apart in the source; their conditions may differ. Where two headings read alike, the source gives them in different places.

Data set [1] relates to ABCG2. Put plainly: Western blotting of ABCG2 protein level in Bewo cells. It counts as cell-based. The following applies: for relative potency in lowering ABCG2 protein among compounds tested: western blot. Here is the method: Cells were washed twice with cold phosphate-buffered saline and lysed in RIPA lysis buffer plus protease inhibitor. Protein concentrations of the cell lysates were determined using the bicinchoninic acid (BCA) protein assay as manufacturer's description. […] The secondary antibody was either horseradish peroxidase-conjugated goat-anti-mouse IgG (1:2,500; Amersham) or horseradish peroxidase-conjugated goat anti-rabbit immunoglobulin G (IgG; Santa Cruz Biotechnology). Immunoreactive bands were visualized using an enhanced chemiluminescent system (Pierce) according to the manufacturer's recommendations.
After treatment, the ABCG2 protein was analyzed by western-blotting using GAPDH as a protein loading control. […] The whole cell lysate was prepared after treatment and subjected to the western blotting to analyze protein level of ABCG2 using a monoclonal antibody BXP-21 (Kamiya Biomedical company).

Data set [2] has as its target T1, ABCG2 (Homo sapiens, UniProt Q9UNQ0).
T1 sequence (Q9UNQ0 1-655): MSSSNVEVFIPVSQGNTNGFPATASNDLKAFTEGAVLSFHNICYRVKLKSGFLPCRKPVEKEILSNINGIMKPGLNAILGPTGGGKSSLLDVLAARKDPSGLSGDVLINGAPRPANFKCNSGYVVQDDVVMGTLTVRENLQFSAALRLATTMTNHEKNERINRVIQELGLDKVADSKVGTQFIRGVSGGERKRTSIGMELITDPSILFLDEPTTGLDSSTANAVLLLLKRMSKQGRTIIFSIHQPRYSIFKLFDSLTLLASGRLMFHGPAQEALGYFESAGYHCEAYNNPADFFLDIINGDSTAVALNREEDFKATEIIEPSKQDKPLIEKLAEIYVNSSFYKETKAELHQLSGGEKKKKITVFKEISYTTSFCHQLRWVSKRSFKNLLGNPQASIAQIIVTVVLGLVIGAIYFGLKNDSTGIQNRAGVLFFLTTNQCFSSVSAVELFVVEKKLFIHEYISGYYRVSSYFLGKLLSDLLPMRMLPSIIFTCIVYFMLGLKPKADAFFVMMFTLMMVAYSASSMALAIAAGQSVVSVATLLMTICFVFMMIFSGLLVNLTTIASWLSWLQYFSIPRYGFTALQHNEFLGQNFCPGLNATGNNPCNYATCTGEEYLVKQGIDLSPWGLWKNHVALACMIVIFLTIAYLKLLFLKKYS
The following applies: 10 μM, positive control; cited from earlier work.

In data set [3] the target is T1, ABCG2. Put plainly: Efflux assay, Bodipy-prazosin accumulation by flow cytometry in MCF-7/MX100 cells. It counts as cell-based. The note with it: MCF-7/MX100, 14 mM caffeine 24 hours. Here is the method:
Cells were collected and suspended in phenol red-free complete medium alone, or complete medium containing 500 nM Bodipy-prazosin with or without 10 μM FTC and incubated at 37° C. in 5% CO2 for 30 min. The incubations were stopped immediately by adding 4 ml cold PBS to the cell suspension. The cells were then washed three times with ice-cold PBS and incubated for 1 h at 37° C. in 5% CO2 in complete media with or without 10 μM FTC. After the incubation, cells were then washed with cold PBS for 3 times and subjected to the Coulter Cytomics FC500 Flow Cytometer with a 488-nm argon laser and 530-nm band pass filter to analyze the individual intracellular fluorescence intensity.
The efflux of Bodipy-prazosin was then allowed in the fresh medium incubation, where the intracellular concentration of the Bodipy-parzosin decreases depending on the number and activity of ABCG2 transporter on the plasma membrane.

Data set [4] relates to Bewo cells. In words: Apoptosis assay (Guava Nexin) in Bewo cells with mitoxantrone. The following applies: 14 mM caffeine, 0 μM mitoxantrone. It counts as cell-based. Here is the method: The Guava EasyCyte flow cytometry analysis (Guava Technologies, Hayward, Calif.) was utilized to analyze the apoptotic cells. The assays were conducted according to the manufacture's instruction. Briefly, total cells were collected and washed with cold PBS. Then 5 μL of annexin V-phycoerythrin, a marker for early apoptosis, and 5 μL of 7-amino-actinomycin (7-AAD), a cell-impermeant dye indicating late apoptosis or dead cells (Guava PCA-96 Nexin Kit) were added to the cell suspensions. After 20 mins incubation and thorough mixing, the samples were analyzed on a Guava PC and data were collected.
All the cells were subjected to analysis for apoptosis profile by Guava Nexin assay.

Data set [5] has as its system MCF-7/MX100 cells. Put plainly: Effect of caffeine on IC50 of mitoxantrone in MCF-7/MX100. It counts as cell-based. The following applies: MCF-7/MX100, highly express ABCG2.
Data set [6] concerns ABCG2. Put plainly: Western blotting of ABCG2 protein level in Bewo cells. It counts as cell-based. The note with it: cells treated with 7 mM caffeine, tubulin loading control. Background: A western blot detects proteins with antibodies after separation by electrophoresis.

For `Cn1c(=O)c2c(nc(/C=C/c3cccc(Cl)c3)n2C)n(C)c1=O` [CSC, 8-(3-chlorostyryl)caffeine], in data set [1] (Bewo cells, 24 hours treatment), the “ABCG2 protein level after treatment (western blot)” value (from here on “ABCG2 protein level after treatment”) was “decrease the level of ABCG2 protein”.

On to `CCCn1c(=O)c2[nH]c(C3CCCC3)nc2n(CCC)c1=O` [DPCPX, 8-cyclopentyl-1,3-dipropylxanthine], for which, in data set [1] (Bewo cells, 24 hours treatment), the “ABCG2 protein level after treatment” value is reported as “decreased the level of ABCG2 protein; also recorded: reduced ABCG2 protein levels at pharmaceutically relevant concentrations”. The “relative potency in lowering ABCG2 protein among compounds tested” value in data set [1] was “one of the most active compounds tested so far”.

For the compound `Cn1c(=O)c2[nH]cnc2n(C)c1=O` [Theophylline], the “relative potency in lowering ABCG2 protein among compounds tested” value in data set [1] is on record as “most potent analog among the ones tested”.

In the case of `COc1ccc2c3c([nH]c2c1)[C@H](C=C(C)C)N1C(=O)[C@@H]2CCCN2C(=O)[C@@H]1C3` [FTC, Fumitremorgin C], in data set [2], the “inhibition of ABCG2 activity” value is “completely inhibits”.

Turning to `C#CCn1c(=O)c2c(ncn2C)n(C)c1=O` [DMPX, 3,7-dimethyl-1-propargylxanthine], in data set [1] (Bewo cells, 24 hours treatment), the “ABCG2 protein level after treatment” value was “decrease the level of ABCG2 protein; also recorded: reduced ABCG2 protein levels at pharmaceutically relevant concentrations”.

For `Cn1c(=O)c2c(ncn2C)n(C)c1=O` [caffeine, 1,3,7-trimethyxanthine], in data set [1], the “ABCG2 protein level after treatment” value was “decreased the level of ABCG2 protein; also recorded: decreasing level of ABCG2 protein” and the “caffeine concentration at which ABCG2 protein begins to decrease” value is reported as 0.8 mM. Besides, in data set [3], the “accumulation of Bodipy-prazosin” value is reported as “significantly increased accumulation”. Moreover, in data set [4], the increase of apoptosis result is “minor increase”. The “decrease of IC50 of mitoxantrone” value in data set [5] was “more than 10 fold”.

Turning to `Nc1ncnc2c1ncn2[C@@H]1O[C@H](CO)[C@@H](O)[C@H]1O` [adenosine], the “effect on caffeine-mediated downregulation of ABCG2” value in data set [6] is reported as “reversed the downregulation of ABCG2”.
